Test results: patent US20100087499A1, “PHARMACEUTICAL COMPOSITIONS AND METHODS OF USING TEMOZOLOMIDE AND MULTI-TARGETED KINASE INHIBITORS” (SCHERING CORPORATION, priority 2007, published 2010)

Test system: U87MG glioblastoma xenograft
Assay: U87MG glioblastoma xenograft tumor growth in nude mice
Format: in vivo
Protocol: The following human glioblastoma xenograft model may be employed to ascertain the efficacy of the formulations and methods described herein. Human glioblastoma cell U87MG are inoculated subcutaneously into female nude mice (age 4-6 wks). Xenograft tumor growth is followed by measuring the tumor size using a caliper. Once tumor size reaches about 100 mm^3 (average), mice carrying the xenograft tumors are grouped and treated with different doses of the combination of TMZ and a multi-targeted kinase inhibitor. Likewise, human glioblastoma cell U373 may be used to establish a xenograft model.
The combination of TMZ and a multi-targeted kinase inhibitor (e.g., sunitinib) for treating a cell proliferative disorder was examined using a human glioblastoma xenograft model. In particular, the glioblastoma model U87MG was used to evaluate the efficacy of multi-targeted kinase inhibitor sunitinib as a single agent compared to TMZ (Temozolomide, Temodar®), a chemotherapeutic drug clinically approved for treating brain tumor, as a single agent. In addition, this study looked at the efficacy of the combination of TMZ with sunitinib in comparison to the efficacy with either agent alone.
In brief, nude mice were inoculated with U87-MG glioblastoma cells and the resultant tumors treated with control, or various concentrations of TMZ, sunitinib, or a combination of both TMZ and sunitinib. More specifically, female nude mice (strain NU/NU), aged 6-8 weeks old were purchased from Charles River Laboratory. Five million glioblastoma U87-MG were mixed 1:1 (volume:volume) with Matrigel (Cat. # 354234, BD Biosciences) on ice and mixtures were inoculated subcutaneously to the flank of each mouse. Dosing was initiated on day 8 after inoculation when the tumor size was approximately 100 mm^3. TMZ was administered qd, ip for five consecutive days. Sunitinib was administered qd, po for 9-12 days consecutive days (until the end of the studies). The dosing volume was approximately 0.1 ml. Tumor size and body weight was measured two to three times per week.
There were 10 nude mice per dosing regimen.

SMILES | inhibition of tumor growth (Day 17 post inoculation, sunitinib alone 40 mpk qd po, Table 1 / FIG. 2) | inhibition of tumor growth (Day 17 post inoculation, sunitinib alone 80 mpk qd po, Table 1 / FIG. 2) | inhibition of tumor growth (Day 20 post inoculation, sunitinib alone 40 mpk qd po, Table 2 / FIG. 4) | inhibition of tumor growth (Day 20 post inoculation, sunitinib alone 80 mpk qd po, Table 2 / FIG. 4) | inhibition of tumor growth (Day 17 post inoculation (day 9 post dosing initiation), TMZ alone 20 mpk qd ip x5 days, Table 1 / FIG. 2) | inhibition of tumor growth (Day 17 post inoculation, TMZ alone 30 mpk (so in the source) qd ip x5 days, Table 1 / FIG. 2) | inhibition of tumor growth (Day 17 post inoculation, TMZ alone 40 mpk (so in the source) qd ip x5 days, Table 1 / FIG. 2) | inhibition of tumor growth (Day 20 post inoculation (day 12 post dosing initiation), TMZ alone 5 mpk qd ip x5 days, Table 2 / FIG. 4) | inhibition of tumor growth (Day 20 post inoculation, TMZ alone 20 mpk qd ip x5 days, Table 2 / FIG. 4)
CCN(CC)CCNC(=O)c1c(C)[nH]c(/C=C2\C(=O)Nc3ccc(F)cc32)c1C [sunitinib] | 56% | 82% | 76% | 83% |  |  |  |  | 
Cn1nnc2c(C(N)=O)ncn2c1=O [TMZ, 3,4-dihydro-3-methyl-4-oxoimidazo[5,1-d]-as-tetazine-8-carboxamide] |  |  |  |  | 96% | 96% | 98% | 95% | 102%
